ChEMBL document CHEMBL3232860, “Evaluation of structural effects on 5-HT(2A) receptor antagonism by aporphines: identification of a new aporphine with 5-HT(2A) antagonist activity” (Bioorg Med Chem Lett, 2014)

Tests used:
[1] = biological target: 5-hydroxytryptamine receptor 2A (Homo sapiens) (UniProt P28223); assay: Antagonist activity at human 5-HT2A receptor assessed as inhibition of 5-HT-induced mobilization of internal calcium at 10 uM by FLIPR assay; assay type: functional
[2] = biological target: T1, Alpha-1A adrenergic receptor (Homo sapiens) (UniProt P35348); assay: Antagonist activity at alpha1A adrenergic receptor (unknown origin) assessed as inhibition of mobilization of internal calcium at 10 uM by FLIPR assay; assay type: functional
T1 sequence (whole entry): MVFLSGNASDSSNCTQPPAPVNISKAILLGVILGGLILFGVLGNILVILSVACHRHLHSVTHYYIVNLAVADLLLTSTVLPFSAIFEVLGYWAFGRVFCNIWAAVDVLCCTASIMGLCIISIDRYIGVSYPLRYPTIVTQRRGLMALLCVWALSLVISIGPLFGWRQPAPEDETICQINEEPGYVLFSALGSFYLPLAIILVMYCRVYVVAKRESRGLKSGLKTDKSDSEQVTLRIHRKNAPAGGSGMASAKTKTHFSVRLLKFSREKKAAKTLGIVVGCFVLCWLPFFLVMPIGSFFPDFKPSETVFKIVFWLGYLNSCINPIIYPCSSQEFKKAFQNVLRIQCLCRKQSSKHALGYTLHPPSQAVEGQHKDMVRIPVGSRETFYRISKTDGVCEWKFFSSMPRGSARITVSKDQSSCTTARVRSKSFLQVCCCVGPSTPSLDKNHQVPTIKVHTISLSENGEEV

Homo sapiens = organism: Homo sapiens; assay: Selectivity ratio of Ke for human 5-HT2A receptor to Ke for alpha1A adrenergic receptor (unknown origin)

Sequence of 5-hydroxytryptamine receptor 2A (Homo sapiens) (P28223 whole entry): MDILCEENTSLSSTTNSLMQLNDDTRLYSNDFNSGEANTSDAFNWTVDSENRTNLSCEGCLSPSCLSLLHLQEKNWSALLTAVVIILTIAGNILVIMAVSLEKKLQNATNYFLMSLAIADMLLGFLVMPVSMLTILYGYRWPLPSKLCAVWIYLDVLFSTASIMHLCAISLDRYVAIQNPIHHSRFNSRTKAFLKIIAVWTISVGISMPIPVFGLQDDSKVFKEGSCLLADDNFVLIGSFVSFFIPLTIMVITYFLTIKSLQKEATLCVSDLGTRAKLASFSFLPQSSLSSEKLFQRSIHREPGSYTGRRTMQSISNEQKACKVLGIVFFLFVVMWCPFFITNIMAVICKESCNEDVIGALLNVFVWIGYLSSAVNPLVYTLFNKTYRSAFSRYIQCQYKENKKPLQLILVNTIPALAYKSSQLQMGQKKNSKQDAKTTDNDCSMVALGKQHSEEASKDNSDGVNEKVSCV

Row | SMILES | Ke [1] [nM] | Ke [2] [nM] | Ratio Ke (Homo sapiens)
1 | C=CCc1cc2c3c(c1OC)-c1cc4c(cc1CC3N(C)CC2)OCO4 (stereo unspecified) | 485 | 566 | 0.85
2 | COc1cc2c3c(c1OC)-c1cc4c(cc1C[C@H]3N(C)CC2)OCO4 | 946 | 70 | 13.5
3 | C=CCc1cc2c3c(c1OCC1CC1)-c1cc4c(cc1CC3N(C)CC2)OCO4 (stereo unspecified) | 963 | > 3000 | < 0.32
4 | C=CCOc1ccc2c3c1-c1cc4c(cc1CC3N(C)CC2)OCO4 (stereo unspecified) | 47 | 744 | 0.06
5 | CN1CCc2ccc(O)c3c2C1Cc1cc2c(cc1-3)OCO2 (stereo unspecified) | > 3000 | 2950 | –
6 | COc1cc2c3c(c1OC)-c1cc4c(cc1CC3OCC2)OCO4 (stereo unspecified) | > 3000 | > 3000 | –
7 | C=CCc1cc2c3c(c1O)-c1cc4c(cc1CC3N(C)CC2)OCO4 (stereo unspecified) | > 3000 | > 3000 | –
8 | C=CCOc1c(CC=C)cc2c3c1-c1cc4c(cc1CC3N(C)CC2)OCO4 (stereo unspecified) | 1370 | > 3000 | < 0.45
9 | COc1cc2c3c(c1OC)-c1cc4c(cc1C[C@@H]3N(C)CC2)OCO4 | 657 | 196 | 3.4
10 | C=CCOc1c(OC)cc2c3c1-c1cc4c(cc1CC3OCC2)OCO4 (stereo unspecified) | > 3000 | > 3000 | –
